In patent US20230348376A1 (TEIJIN PHARMA LIMITED, priority 2020, published 2023):

Molecular target: T1, human VDR (Homo sapiens, UniProt P11473)
T1 sequence (P11473 1-427): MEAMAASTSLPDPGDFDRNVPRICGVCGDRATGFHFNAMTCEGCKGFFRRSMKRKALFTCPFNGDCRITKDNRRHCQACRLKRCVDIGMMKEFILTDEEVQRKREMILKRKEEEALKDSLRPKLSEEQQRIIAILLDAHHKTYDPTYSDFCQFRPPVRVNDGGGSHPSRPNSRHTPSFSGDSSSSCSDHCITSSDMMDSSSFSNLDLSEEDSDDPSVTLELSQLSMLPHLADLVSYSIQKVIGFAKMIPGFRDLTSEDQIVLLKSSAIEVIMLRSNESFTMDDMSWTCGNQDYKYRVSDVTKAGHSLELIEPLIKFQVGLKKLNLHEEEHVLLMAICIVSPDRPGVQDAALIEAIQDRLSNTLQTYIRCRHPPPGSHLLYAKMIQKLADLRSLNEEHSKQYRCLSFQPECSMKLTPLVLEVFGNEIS
T1 sequence (P19793 1-462 partner): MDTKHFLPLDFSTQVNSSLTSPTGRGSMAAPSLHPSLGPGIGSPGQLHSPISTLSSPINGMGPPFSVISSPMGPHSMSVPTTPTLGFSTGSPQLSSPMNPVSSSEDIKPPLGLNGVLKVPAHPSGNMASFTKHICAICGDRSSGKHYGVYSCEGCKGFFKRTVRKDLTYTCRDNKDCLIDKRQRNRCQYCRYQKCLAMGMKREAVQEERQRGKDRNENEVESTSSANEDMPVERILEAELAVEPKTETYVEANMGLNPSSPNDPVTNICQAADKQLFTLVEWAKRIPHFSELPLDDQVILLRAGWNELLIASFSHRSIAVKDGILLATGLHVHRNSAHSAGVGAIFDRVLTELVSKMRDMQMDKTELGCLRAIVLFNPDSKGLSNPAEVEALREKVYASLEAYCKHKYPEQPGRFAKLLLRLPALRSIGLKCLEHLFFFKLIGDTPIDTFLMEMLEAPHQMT
Experiment: Evaluation of VDR transcription activity in human osteoblasts (HOS cells), luciferase reporter
Settings: Activity (EC50, VDR transcription activity), HOS cells transfected with human VDR, human RXRα and DR3 luciferase reporter; 21 hours

Structure (SMILES) | EC50 [nM]
C[C@H](CCN1CC[C@H](C(C)(F)F)C1)[C@H]1CC[C@H]2/C(=C/C=C3C[C@@H](O)C[C@H](O)C3)CCC[C@]12C [Compound B083, (1R,3R)-5-(2-((1R,3aS,7aR,E)-1-((R)-4-((S)-3-(1,1-difluoroethyl)pyrrolidin-1-yl)butan-2-yl)-7a-methyloctahydro-4H-inden-4-ylidene)ethylidene)cyclohexane-1,3-diol] | 10 to 100
C[C@H](CCCN1CC[C@H](C(F)F)C1)[C@H]1CC[C@H]2/C(=C/C=C3C[C@@H](O)C[C@H](O)C3)CCC[C@]12C [Compound B084, (1R,3R)-5-(2-((1R,3aS,7aR,E)-1-((R)-5-((S)-3-(difluoromethyl)pyrrolidin-1-yl)pentan-2-yl)-7a-methyloctahydro-4H-inden-4-ylidene)ethylidene)cyclohexane-1,3-diol] | 10 to 100
C[C@H](CCCN1CC[C@@H](C(F)F)C1)[C@H]1CC[C@H]2/C(=C/C=C3C[C@@H](O)C[C@H](O)C3)CCC[C@]12C [Compound B085, (1R,3R)-5-(2-((1R,3aS,7aR,E)-1-((R)-5-((R)-3-(difluoromethyl)pyrrolidin-1-yl)pentan-2-yl)-7a-methyloctahydro-4H-inden-4-ylidene)ethylidene)cyclohexane-1,3-diol] | 10 to 100
C[C@H](CCN1CC[C@@H](OC(F)F)C1)[C@H]1CC[C@H]2/C(=C/C=C3C[C@@H](O)C[C@H](O)C3)CCC[C@]12C [Compound B087, (1R,3R)-5-(2-((1R,3aS,7aR,E)-1-((R)-4-((R)-3-(difluoromethoxy)pyrrolidin-1-yl)butan-2-yl)-7a-methyloctahydro-4H-inden-4-ylidene)ethylidene)cyclohexane-1,3-diol] | 100 to 1000
C=C1[C@H](O)CC(=C/C=C2\CCC[C@]3(C)[C@@H]([C@H](C)CCN4CC[C@H](C(F)F)C4)CC[C@@H]23)C[C@H]1O [Compound B088, (1R,3R)-5-(2-((1R,3aS,7aR,E)-1-((R)-4-((S)-3-(difluoromethyl)pyrrolidin-1-yl)butan-2-yl)-7a-methyloctahydro-4H-inden-4-ylidene)ethylidene)-2-methylenecyclohexane-1,3-diol] | 1 to 10
C=C1[C@H](O)CC(=C/C=C2\CCC[C@]3(C)[C@@H]([C@H](C)CCN4CC[C@H](CC(F)F)C4)CC[C@@H]23)C[C@H]1O [Compound B090, (1R,3R)-5-(2-((1R,3aS,7aR,E)-1-((R)-4-((R)-3-(2,2-difluoroethyl)pyrrolidin-1-yl)butan-2-yl)-7a-methyloctahydro-4H-inden-4-ylidene)ethylidene)-2-methylenecyclohexane-1,3-diol] | 1 to 10
C=C1[C@H](O)CC(=C/C=C2\CCC[C@]3(C)[C@@H]([C@H](C)CCN4CC[C@H](C(C)(F)F)C4)CC[C@@H]23)C[C@H]1O [Compound B091, (1R,3R)-5-(2-((1R,3aS,7aR,E)-1-((R)-4-((S)-3-(1,1-difluoroethyl)pyrrolidin-1-yl)butan-2-yl)-7a-methyloctahydro-4H-inden-4-ylidene)ethylidene)-2-methylenecyclohexane-1,3-diol] | 1 to 10
C=C1[C@H](O)CC(=C/C=C2\CCC[C@]3(C)[C@@H]([C@H](C)CCN4CC[C@@H](CC(F)F)C4)CC[C@@H]23)C[C@H]1O [Compound B092, (1R,3R)-5-(2-((1R,3aS,7aR,E)-1-((R)-4-((S)-3-(2,2-difluoroethyl)pyrrolidin-1-yl)butan-2-yl)-7a-methyloctahydro-4H-inden-4-ylidene)ethylidene)-2-methylenecyclohexane-1,3-diol] | 10 to 100
C=C1[C@H](O)CC(=C/C=C2\CCC[C@]3(C)[C@@H]([C@H](C)CCN4CC[C@@H](C(C)(F)F)C4)CC[C@@H]23)C[C@H]1O [Compound B093, (1R,3R)-5-(2-((1R,3aS,7aR,E)-1-((R)-4-((R)-3-(1,1-difluoroethyl)pyrrolidin-1-yl)butan-2-yl)-7a-methyloctahydro-4H-inden-4-ylidene)ethylidene)-2-methylenecyclohexane-1,3-diol] | 1 to 10
C=C1[C@H](O)CC(=C/C=C2\CCC[C@]3(C)[C@@H]([C@H](C)CCN4CC[C@@H](CCC(F)F)C4)CC[C@@H]23)C[C@H]1O [Compound B094, (1R,3R)-5-(2-((1R,3aS,7aR,E)-1-((R)-4-((R)-3-(3,3-difluoropropyl)pyrrolidin-1-yl)butan-2-yl)-7a-methyloctahydro-4H-inden-4-ylidene)ethylidene)-2-methylenecyclohexane-1,3-diol] | 10 to 100
C=C1/C(=C\C=C2/CCC[C@]3(C)[C@@H]([C@@H](C)CN4CC[C@H](C(F)F)C4)CC[C@@H]23)C[C@@H](O)C[C@@H]1O [Compound B095, (1R,3S,Z)-5-(2-((1R,3aS,7aR,E)-1-((R)-1-((S)-3-(difluoromethyl)pyrrolidin-1-yl)propan-2-yl)-7a-methyloctahydro-4H-inden-4-ylidene)ethylidene)-4-methylenecyclohexane-1,3-diol] | 100 to 1000
C=C1/C(=C\C=C2/CCC[C@]3(C)[C@@H]([C@@H](C)CN4CC[C@@H](C(F)F)C4)CC[C@@H]23)C[C@@H](O)C[C@@H]1O [Compound B096, (1R,3S,Z)-5-(2-((1R,3aS,7aR,E)-1-((R)-1-((R)-3-(difluoromethyl)pyrrolidin-1-yl)propan-2-yl)-7a-methyloctahydro-4H-inden-4-ylidene)ethylidene)-4-methylenecyclohexane-1,3-diol] | 1 to 10
C=C1/C(=C\C=C2/CCC[C@]3(C)[C@@H]([C@H](C)CN4CCC(O)(C(F)(F)F)CC4)CC[C@@H]23)C[C@@H](O)C[C@@H]1O [Compound C001, (1R,3S,Z)-5-(2-((1R,3aS,7aR,E)-1-((S)-1-(4-hydroxy-4-(trifluoromethyl)piperidin-1-yl)propan-2-yl)-7a-methyloctahydro-4H-inden-4-ylidene)ethylidene)-4-methylenecyclohexane-1,3-diol] | 1 to 10
C=C1/C(=C\C=C2/CCC[C@]3(C)[C@@H]([C@H](C)CN4CCC(O)(C(F)(F)F)CC4)CC[C@@H]23)C[C@@H](O)[C@H](C)[C@@H]1O [Compound C003, (1R,2S,3S,Z)-5-(2-((1R,3aS,7aR,E)-1-((S)-1-(4-hydroxy-4-(trifluoromethyl)piperidin-1-yl)propan-2-yl)-7a-methyloctahydro-4H-inden-4-ylidene)ethylidene)-2-methyl-4-methylenecyclohexane-1,3-diol] | 10 to 100
C=C1[C@H](O)CC(=C/C=C2\CCC[C@]3(C)[C@@H]([C@H](C)CN4CCC(O)(C(F)(F)F)CC4)CC[C@@H]23)C[C@H]1O [Compound C004, (1R,3R)-5-(2-((1R,3aS,7aR,E)-1-((S)-1-(4-hydroxy-4-(trifluoromethyl)piperidin-1-yl)propan-2-yl)-7a-methyloctahydro-4H-inden-4-ylidene)ethylidene)-2-methylenecyclohexane-1,3-diol] | 10 to 100
C=C1[C@H](O)CC(=C/C=C2\CCC[C@]3(C)[C@@H]([C@H](C)CN4CCC(C(F)(F)F)CC4)CC[C@@H]23)C[C@H]1O [Compound C009, (1R,3R)-5-(2-((1R,3aS,7aR,E)-7a-methyl-1-((S)-1-(4-(trifluoromethyl)piperidin-1-yl)propan-2-yl)octahydro-4H-inden-4-ylidene)ethylidene)-2-methylenecyclohexane-1,3-diol] | 10 to 100
C=C1/C(=C\C=C2/CCC[C@]3(C)[C@@H]([C@H](C)CN4CCC(C(F)(F)F)CC4)CC[C@@H]23)C[C@@H](O)[C@H](C)[C@@H]1O [Compound C010, (1R,2S,3S,Z)-2-methyl-5-(2-((1R,3aS,7aR,E)-7a-methyl-1-((S)-1-(4-(trifluoromethyl)piperidin-1-yl)propan-2-yl)octahydro-4H-inden-4-ylidene)ethylidene)-4-methylenecyclohexane-1,3-diol] | 10 to 100
C=C1/C(=C\C=C2/CCC[C@]3(C)[C@@H]([C@@H](C)CN4CCC(C(F)(F)F)CC4)CC[C@@H]23)C[C@@H](O)C[C@@H]1O [Compound C011, (1R,3S,Z)-5-(2-((1R,3aS,7aR,E)-7a-methyl-1-((R)-1-(4-(trifluoromethyl)piperidin-1-yl)propan-2-yl)octahydro-4H-inden-4-ylidene)ethylidene)-4-methylenecyclohexane-1,3-diol] | 1 to 10
C=C1/C(=C\C=C2/CCC[C@]3(C)[C@@H]([C@@H](C)CN4CCC(C(F)(F)F)CC4)CC[C@@H]23)C[C@@H](O)[C@H](C)[C@@H]1O [Compound C012, (1R,2S,3S,Z)-2-methyl-5-(2-((1R,3aS,7aR,E)-7a-methyl-1-((R)-1-(4-(trifluoromethyl)piperidin-1-yl)propan-2-yl)octahydro-4H-inden-4-ylidene)ethylidene)-4-methylenecyclohexane-1,3-diol] | 1 to 10
C=C1[C@H](O)CC(=C/C=C2\CCC[C@]3(C)[C@@H]([C@H](C)CN4CCC(C(F)F)CC4)CC[C@@H]23)C[C@H]1O [Compound C015] | 10 to 100
